Measured values from PubChem BioAssay AID1996.
In brackets after ≈: the same amount, converted by molar mass.

conditions: buffer; pH 7.4; 200.0 µM

| Compound | solubility kinetic |
| --- | --- |
| Cc1onc(-c2ccccc2)c1C(=O)/C=C/N(C)C | 36.4 µg/mL (≈ 142 µM) |
| [Br-].c1ccc(-c2c[n+]3c(n2-c2ccccc2)SCC3)cc1 | > 53.9 µg/mL |
| Cl.c1ccc2c(c1)OCC(C1=NCCN1)O2 (configuration not stated) | > 36.1 µg/mL |
| O=C(NC(=S)Nc1cccc2ncccc12)c1ccco1 | 13.3 µg/mL (≈ 44.7 µM) |
| S=c1[nH]c2ccccc2n1Cc1ccccc1 | 4.8 µg/mL (≈ 20 µM) |
| Cc1csc(Nc2ccccc2)[n+]1C.[Br-] | 30.2 µg/mL |
| COc1ccc(-c2cc(C(=O)Nc3ccc(OC)cc3OC)no2)cc1 | < 0.4 µg/mL |
| C=CC(=O)NN(C)c1ncc(C(F)(F)F)cc1Cl | > 41.9 µg/mL |
| O=S(=O)(c1ccc2c(c1)CCN2)N1CCCC1 | 36.1 µg/mL (≈ 143 µM) |
| CCN=c1sc(C(=O)Nc2ccccc2)c(C)n1CC | 43 µg/mL (≈ 149 µM) |
| O=C(CN1CCCC1)NC(=O)NC1CCCC1 | > 35.9 µg/mL |
| CCCOCCc1nnc(N)s1 | > 28.1 µg/mL |
| COc1ccc(NC(=O)c2ccco2)c2ccccc12 | > 40.1 µg/mL |
| O=C1NC(c2ccccc2Br)=N/C1=C\c1ccco1 | 13.6 µg/mL (≈ 42.9 µM) |
| CCCCN1CC(O)=C(c2nc(-c3ccc(Br)cc3)cs2)C1=N | < 0.3 µg/mL |
| COc1ccc(Oc2ccc(C(F)(F)F)cc2NC(=O)c2ccc(F)cc2)cc1 | < 0.9 µg/mL |
| NC(=O)C(=O)NCCCN1CCOCC1 | > 32.3 µg/mL |
| OCCC1CN(CCCc2ccccc2)CCN1Cc1ccccc1 (configuration not stated) | > 50.8 µg/mL |
| CCOC(=O)c1c(CC(C)C)csc1N | 2.1 µg/mL (≈ 9.24 µM) |
| Cn1c(=O)oc2cc(S(=O)(=O)Nc3ccccc3F)ccc21 | 15.6 µg/mL (≈ 48.4 µM) |
| CCN(Cc1cc(=O)oc2cc(C)ccc12)c1ccccc1 | 2 µg/mL (≈ 6.82 µM) |
| COc1ccccc1S(=O)(=O)Nc1cccc(S(=O)(=O)N2CCCC2)c1 | > 59.5 µg/mL |
| N/C(=N\OC(=O)c1ccc([N+](=O)[O-])cc1Cl)c1ccccn1 | 12.8 µg/mL (≈ 39.9 µM) |
| COc1ccccc1Cn1c(CO)nc2ccccc21 | 37.4 µg/mL (≈ 139 µM) |
| Cc1nc(C)c(C(=O)Nc2cccc(C)c2C)s1 | > 39.1 µg/mL |
| CCCSc1nc2sc3c(c2c(=O)n1CC)CC(C)(C)OC3 | < 0.4 µg/mL |
| CC1(C)CC(=O)C=C(Nc2cccc(F)c2)C1 | > 35 µg/mL |
| O=C(NCc1csc(-c2cccs2)n1)C1CCCCC1 | 3.9 µg/mL (≈ 12.7 µM) |

| Compound | solubility kinetic |
| --- | --- |
| COc1cc(Br)ccc1NC(=O)c1ccccc1-c1ccccc1C(=O)O | 53.3 µg/mL (≈ 125 µM) |
| Cc1c(C(=O)Nc2cccc(S(=O)(=O)N3CCOCC3)c2)oc2ccc(Br)cc12 | 4.5 µg/mL (≈ 9.39 µM) |
| Cc1nn(CC(=O)N(C)C2(C#N)CCCCC2)c(C)c1[N+](=O)[O-] | > 47.9 µg/mL |
| Cc1nnc(SCC(=O)N(C)c2ccccc2)n1-n1cccc1 | > 49.1 µg/mL |
| O=C(NC1CCCCCCC1)c1cc(-c2ccccn2)nc2ccccc12 | < 0.3 µg/mL |
| Cc1ccc(OCC(=O)N2CCCCC2C)c([N+](=O)[O-])n1 (configuration not stated) | > 44 µg/mL |
| O=C(NCc1ccccc1F)C(c1ccccc1)c1ccccc1 | 0.9 µg/mL (≈ 2.82 µM) |
| O=C(NCc1ccc2c(c1)OCO2)Nc1ccc(F)cc1 | 3.1 µg/mL (≈ 10.8 µM) |
| COc1ccccc1CNS(=O)(=O)c1ccc(Br)s1 | 32.4 µg/mL (≈ 89.4 µM) |
| CSc1ncc(CN2CCN(C3CCCC3)C(CCO)C2)cn1 (configuration not stated) | 42.6 µg/mL (≈ 127 µM) |
| C=CCSc1ncc(CO)n1Cc1ccccc1 | 37.9 µg/mL (≈ 146 µM) |
| Cc1cccc(NS(=O)(=O)c2ccc3oc(=O)ccc3c2)c1C | 44.8 µg/mL (≈ 136 µM) |
| COCCCNc1nc2nonc2nc1N1CCN2CCCC2C1 (configuration not stated) | > 50 µg/mL |
| O=C(NC(c1ccccc1)c1ccccc1)N1CCOCC1 | > 44.5 µg/mL |
| CCCCN(c1ccccc1)S(=O)(=O)c1cccc2cccnc12 | 9 µg/mL (≈ 26.4 µM) |
| Cc1ncoc1C(=O)Nc1ncc([N+](=O)[O-])s1 | > 38.1 µg/mL |
| Cc1nc2cc(NC(=O)c3ccco3)ccc2n1C | 38.2 µg/mL (≈ 150 µM) |
| CCOc1ccc(C2C(C#N)=C(N)Oc3nc[nH]c(=O)c32)cc1 (configuration not stated) | > 46.5 µg/mL |
| N/C(=N\OC(=O)CSc1ccccc1)c1ccccn1 | > 43.1 µg/mL |
| CO/N=C(\C)C(Cc1ccc(Cl)nc1)Cc1ccc(Cl)nc1 | > 50.7 µg/mL |
| Cc1ccc2nc(-c3ccccc3)c(-c3ccccc3)nc2c1 | < 0.3 µg/mL |
| Nc1cc(=O)[nH]c(SCC(=O)Nc2cccc(S(=O)(=O)N3CCCCC3)c2)n1 | > 63.5 µg/mL |
| O=C(CSc1nc(C2CC2)nc2ccccc12)N1CCCCC1 | 46.9 µg/mL (≈ 143 µM) |
| O=C(Nc1ccc([N+](=O)[O-])cc1)OCCc1ccccn1 | 0.6 µg/mL (≈ 2.09 µM) |
| CN(CCO)CCOCCOc1cccc2ccccc12 | 34.6 µg/mL (≈ 120 µM) |
| NC(=O)c1ccc[n+]([C@H]2O[C@@H](COP(=O)([O-])OP(=O)(O)OC[C@H]3O[C@@H](n4cnc5c(N)ncnc54)[C@H](O)[C@@H]3O)[C@H](O)[C@@H]2O)c1 | > 99.5 µg/mL |
| CC(C)(C)c1ccc(OCCCn2ccnc2)cc1 | 25.5 µg/mL (≈ 98.7 µM) |

Now from value to molecule:

| solubility kinetic | Compound |
| --- | --- |
| 0.3 µg/mL (≈ 0.876 µM) | Cc1cc(C)nc(N2CCC(C(=O)NCc3ccccc3F)CC2)n1 |
| 26.2 µg/mL (≈ 69.2 µM) | CCN(c1ccccc1)S(=O)(=O)c1cc(NC(=O)C2CC2)ccc1Cl |
| > 49 µg/mL | CN(CC(=O)NCc1ccco1)S(=O)(=O)c1ccc(F)cc1 |
| 36.8 µg/mL (≈ 98.4 µM) | O=C(CSCc1c(F)cccc1Cl)NCCSCc1ccco1 |
| 49.2 µg/mL (≈ 139 µM) | COc1cc(OC)cc(C(=O)Nc2ccc(CN3CCCCC3)cc2)c1 |
| > 44.3 µg/mL | COc1cc(OC)c(C(=O)NCC2CCCO2)cc1OC (configuration not stated) |
| 1.2 µg/mL (≈ 3.98 µM) | COc1ccccc1NC(=O)c1csc2c1CCC(C)C2 (configuration not stated) |
| > 41.9 µg/mL | CCn1cnc2cc(NC(=O)c3ccc(C)cc3)ccc21 |
| 46.4 µg/mL (≈ 140 µM) | CCOCCCNC(=O)c1cc2c(=O)n3ccccc3nc2s1 |
| 43.3 µg/mL (≈ 133 µM) | CCC1CN(C(=O)NCc2cccc(OC)c2)c2ccccc2O1 (configuration not stated) |
| 3.9 µg/mL (≈ 12.9 µM) | CSc1nc(-c2ccccc2)nc(NC(C)=O)c1C(C)=O |
| > 51.5 µg/mL | O=C(NCC(=O)N1CCN(Cc2ccccc2)CC1)c1cccs1 |
| 21.5 µg/mL (≈ 58.5 µM) | Cc1ccc(S(=O)(=O)NCC(=O)OCCOc2ccccc2F)cc1 |
| 31.6 µg/mL (≈ 120 µM) | CC1CCC(N(CCCN)Cc2ccco2)CC1C (configuration not stated) |
| < 0.8 µg/mL | C=CCOc1ccc(/C=C/C(=O)OCC(=O)NC2CCCCCC2)cc1 |
| < 0.3 µg/mL | COc1cc(NC(=O)c2ccc(Cl)cc2)c2ncccc2c1 |
| > 42.3 µg/mL | Cc1ccc(S(=O)(=O)N2C(=O)CCC2C(N)=O)cc1 (configuration not stated) |
| 9.3 µg/mL (≈ 26.2 µM) | O=C(NC1CCN(C(=O)NCc2ccccc2)CC1)c1ccc(F)cc1 |
| 4.6 µg/mL (≈ 16 µM) | O=C(NCCc1ccc(F)cc1)c1ccc([N+](=O)[O-])cc1 |
| 7.6 µg/mL (≈ 25.8 µM) | Cc1ccc(C(=O)NCC(=O)NC2CCC(C)CC2)s1 (configuration not stated) |
| > 39.6 µg/mL | CC(=O)Nc1c(Cl)cnn(-c2ccccc2)c1=O |

| solubility kinetic | Compound |
| --- | --- |
| 1.3 µg/mL (≈ 3.37 µM) | Cc1cc(=O)c2cc(Br)ccc2n1CC(=O)NCc1ccccc1 |
| 2.9 µg/mL (≈ 10.8 µM) | COc1cccc(-c2onc3ccc(C(C)=O)cc23)c1 |
| > 60.1 µg/mL | CC(C)CN(C(=O)CCNC(=O)c1ccc(Cl)cc1)C1CCS(=O)(=O)C1 (configuration not stated) |
| 10 µg/mL (≈ 26.5 µM) | NS(=O)(=O)c1ccc(NC(=O)CNC(=O)c2ccc3c(c2)OCO3)cc1 |
| 4 µg/mL (≈ 12 µM) | O=C(OCCC1Oc2cccnc2NC1=O)c1ccc(Cl)cc1 (configuration not stated) |
| > 39.5 µg/mL | O=C(Nc1ccc([N+](=O)[O-])cc1)N1CCCCCC1 |
| 13.1 µg/mL (≈ 42 µM) | CCCCNC(=S)N1CCN(c2ccccc2Cl)CC1 |
| 0.6 µg/mL (≈ 2.42 µM) | O=C(Nc1ccc(Cl)cc1)Nc1ccccn1 |
| 52.2 µg/mL (≈ 141 µM) | O=C(CC1C(=O)NCCN1C(=O)Nc1ccccc1)Nc1ccc(F)cc1 (configuration not stated) |
| < 0.4 µg/mL | CCCn1c(=O)c(C(=O)Nc2ccccc2C)c(O)c2ccccc21 |
| > 49.7 µg/mL | Cc1ccc(-c2nnc(SCC(=O)NC3CCCC3)n2N)cc1 |
| > 49.6 µg/mL | CC1=C(C(=O)OC2CCCCC2)C(c2ccc(O)cc2)NC(=O)N1 (configuration not stated) |
| 29.2 µg/mL (≈ 74.5 µM) | Cc1cc(C(=O)COC(=O)CC(NC(N)=O)c2ccc(Cl)cc2)c(C)n1C (configuration not stated) |
| 33.5 µg/mL (≈ 96.2 µM) | CC1CCN(C(=O)c2ccc(N3C(=O)c4ccccc4C3=O)cc2)CC1 |
| 6.4 µg/mL (≈ 20.6 µM) | CN(C(=S)NC(=O)c1ccc(Cl)cc1)C1CCCCC1 |
| > 45.2 µg/mL | O=C(Cn1cnc2ccccc21)OCC(=O)N1CCCCC1 |
| > 46 µg/mL | NC(=O)C1CCN(C(=O)CCC(=O)c2ccc(F)cc2)CC1 |
| 14.9 µg/mL (≈ 52.9 µM) | O=C(NCCOc1ccc(Cl)cc1)C1CCCCC1 |
| < 0.4 µg/mL | CC(C)C(=O)Nc1ccc2c(c1)Cc1cc(NC(=O)C(C)C)ccc1-2 |
| 8.5 µg/mL (≈ 27.7 µM) | Cc1ccc(O)c(NC(=O)c2cc([N+](=O)[O-])ccc2Cl)c1 |
| 41.2 µg/mL (≈ 131 µM) | CC(C(=O)O/N=C(\N)c1cccnc1)c1ccc([N+](=O)[O-])cc1 (configuration not stated) |

| solubility kinetic | Compound |
| --- | --- |
| 18.5 µg/mL (≈ 37.7 µM) | O=C(CSc1nc2ccccc2c(=O)n1CCCN1CCOCC1)Nc1ccc(F)c(Cl)c1 |
| 2.2 µg/mL (≈ 5.92 µM) | Cc1cccc(NC(=O)c2ccc3c(c2)C(=O)N(c2ccccn2)C3=O)c1C |
| > 47.4 µg/mL | Cc1ccc(C(=O)N2CCN(c3ccccn3)CC2)cc1Cl |
| 7.2 µg/mL (≈ 19.3 µM) | O=C(COC(=O)c1ccc(Br)o1)NCc1ccc(Cl)cc1 |
| > 49.4 µg/mL | CN1C(=O)NC(c2ccc([N+](=O)[O-])cc2)C2=C1CC(C)(C)CC2=O (configuration not stated) |
| 29.3 µg/mL (≈ 104 µM) | CC1CCCC(C)N1C(=O)CSc1nccc(=O)[nH]1 (configuration not stated) |
| > 50.9 µg/mL | COc1ccc(CCNC(=O)c2c(C)nc3ccccn23)cc1OC |
| < 0.3 µg/mL | CC(=O)c1sc(NC(=O)c2ccc(C(C)(C)C)cc2)nc1C |
| 5.8 µg/mL (≈ 16.8 µM) | Cc1ccc(NS(=O)(=O)c2cccc(C(=O)NC3CC3)c2)c(C)c1 |
| 8.5 µg/mL (≈ 17.9 µM) | CCCCn1c(N)c(N(CCC(C)C)C(=O)COC(=O)/C=C/c2ccc(F)cc2)c(=O)[nH]c1=O |
| > 50.3 µg/mL | CC(C(=O)c1ccccc1)[n+]1cccc(C(N)=O)c1.[Br-] (configuration not stated) |
| > 45.3 µg/mL | COc1ccc(CCNC(=O)CNC(=O)c2ccco2)cc1 |
| 4.4 µg/mL (≈ 13.6 µM) | CCOC(=O)Cc1csc(NC(=O)Nc2ccc(F)cc2)n1 |
| 48.7 µg/mL (≈ 131 µM) | O=C(CN1CCN(S(=O)(=O)c2ccc(Cl)cc2)CC1)N1CCCC1 |
| 2.8 µg/mL (≈ 8.95 µM) | O=Cc1c(NCc2ccc(Cl)cc2)c2ccccc2[nH]c1=O |
| 16.1 µg/mL (≈ 34 µM) | Cc1ccc(NC(=O)CNC(=O)c2ccc(C(C)(C)C)cc2)cc1S(=O)(=O)N1CCOCC1 |
| 47 µg/mL (≈ 146 µM) | COc1cccc(CNC(=O)CCCc2c[nH]c3ccccc23)c1 |
| 36.9 µg/mL | Cc1ccc(NC(=O)CCN2CCN(C)CC2)cc1.Cl |
| > 67.9 µg/mL | CN(c1ccc(OCC(=O)NC2CCC(O)CC2)cc1)S(=O)(=O)c1ccc(Cl)cc1 (configuration not stated) |
| 2.8 µg/mL (≈ 8.37 µM) | Cc1ccc(C(=O)Nc2ccc(NC(=O)c3ccco3)c(C)c2)cc1 |
